Source: patent US20100029600A1, “DIHYDRO-TRITERPENES IN THE TREATMENT OF VIRAL INFECTIONS, CARDIOVASCULAR DISEASE, INFLAMMATION, HYPERSENSITIVITY OR PAIN” (priority 2001, published 2010)

Experiments:
[1] = test system: TPA induced ear inflammation; test: TPA (phorbolester) induced ear oedema test in the mouse, topical; type: in vivo; details: 0.02 mg per application topical; 3 h after TPA; p<0.05
[2] = test system: carrageenin-induced paw oedema; test: Carrageenin-induced paw oedema test in the rat, oral; type: in vivo; details: 150 mg/kg oral, p<0.05
Protocol: Carrageenin, the phlogistic agent of choice for testing antiinflammatory drugs, is a mucopolysaccharide derived from Irish sea moss, Chondrus. Ibuprofen is used as a positive control.
The test article is the composition according to the invention described in example 1 further modified so that the dihydro-triterpenes are predominantly in the form of fatty acid esters (Compound 2). Ibuprofen is obtained from Astion A/S, Denmark. The test article is dissolved in peanut oil, which is used as vehicle.
The study is performed in male SPF Sprague Dawley rats of the stock Mol:SPRD from M & B A/S, Tornbjergvej 40, DK-4623 Lille Skensved. At start of the acclimatisation period the rats are in the weight range of 80-100 g.
The test articles or vehicle are administered orally by gavage in volumes of 20 ml per kg body weight, 0-5 minutes before injection of carrageenin into the foot.
Carrageenin (from Sigma) is prepared as a 1% suspension in sterile 0.9% NaCl-solution. A volume of 0.1 ml is injected through a 25-gauge needle into the plantar tissue of the right hind paw of the rats within 5 minutes after treatment with the test articles.
Immediately before the dosing and carrageenin injection and three and five hours later the foot volume is measured using a plethysmometer LE 7500 from Letica Scientific Instruments, Spain.

Structure (SMILES) | inhibition of ear swelling [1] | inhibition of paw oedema ([2]; after five hours) | inhibition of paw oedema ([2]; after three hours)
CCCC(=O)O[C@]1(C(=O)CO)CC[C@H]2[C@@H]3CCC4=CC(=O)CC[C@]4(C)[C@H]3[C@@H](O)C[C@@]21C [Hydrocortisone 17-butyrate, hydrocortisone 17-butyrate] | 90% |  | 
CC(C)Cc1ccc(C(C)C(=O)O)cc1 (stereo not drawn) [ibuprofen, Ibuprofen] |  | 88% | 81%
